Results published in patent publication US20260256792A1, “TREATMENT OF CHRONIC SPONTANEOUS URTICARIA BY ADMINISTERING (R)-2-[3-[4-AMINO-3-(2-FLUORO-4-PHENOXY-PHENYL)PYRAZOLO[3,4-D]PYRIMIDIN-1-YL]PIPERIDINE-1-CARBONYL]-4-METHYL-4-[4-(OXETAN-3-YL)PIPERAZIN-1-YL]PENT-2-ENENITRILE” (priority 2023, published 2026).

Test system: moderate-to-severe chronic spontaneous urticaria (CSU)
Test: Phase 2 CSU study: urticaria activity score over 7 days (UAS7)
Assay type: in vivo, human
Parameters: key to UAS7 Median / UAS7 Change from baseline Median / UAS7 change from baseline, Q1 / UAS7 change from baseline, Q3 / UAS7 change from baseline, Max / UAS7 Change from baseline LS Mean (SE): UAS7 points; daily UAS score ranges 0–6 points/day, over 7 days
Conditions: for RRD (%) for rilzabrutinib vs. placebo, UAS7 = 0 / RRD (%) for rilzabrutinib vs. placebo, UAS7 ≤6 / Responder n (%), UAS7 = 0 / Responder n (%), UAS7 ≤6 / Imputed non-responder n (%), UAS7 = 0 / Imputed non-responder n (%), UAS7 ≤6 / Non-responder n (%), UAS7 = 0 / Non-responder n (%), UAS7 ≤6 / OR for rilzabrutinib vs. placebo, UAS7 = 0 / OR for rilzabrutinib vs. placebo, UAS7 ≤6: Omalizumab-naïve, 400 mg TID; for Non-responder, UAS7 reduction from baseline of 10 points or more / OR for rilzabrutinib vs. placebo, UAS7 reduction of 10 points or more / RRD (%) for rilzabrutinib vs. placebo, UAS7 reduction of 10 points or more / Responder, UAS7 reduction from baseline of 10 points or more / UAS7 Change from baseline Mean (SD) / UAS7 Change from baseline Median / UAS7 Mean (SD) / UAS7 Median / UAS7 Percent change from baseline Mean (SD) / UAS7 Percent change from baseline Median: Week 1
Excerpt: The study comprises a 12 week, randomized, double-blind, placebo-controlled, multi-center, dose-ranging efficacy and safety phase, followed by a 40 week open label extension (OLE) phase (see FIG. 1). The study consists of three phases and an optional OLE phase. […] Clinically, CSU is characterized by the spontaneous and recurrent appearance of pruritic hives. The proposed primary endpoints were the UAS7 at Week 12 in EU and EU reference countries and the ISS7 in the US. Regardless of where a participant was from, all assessments were the same. The UAS7 score is a composite score containing both the HSS7 and the ISS7. This allowed a global assessment of the two key components of urticaria: hives and itch. […] The UAS is a validated PRO measure. […] The daily UAS scores range from 0 to 6 point/day. […] Patients were to complete the UAS using the e-diary. […] The following secondary endpoints were to be analyzed using the same approach as for the primary endpoint: • Change from baseline in UAS7 at Week 4 • Change from baseline in UAS7 at Week 12 (for US and US reference countries) • Change from baseline in ISS7 at Week 12 (except US and US reference countries) • Change from baseline in HSS7 at Week 12 The following responder secondary endpoints were to be analyzed using the Cochran-Mantel-Haenszel test adjusted by region: • Proportion of participants with UAS7<6 at Week 12 • Proportion of participants with UAS7=0 at Week 12 Participants who received selected prohibited medications and/or rescue medications were to be considered as non-responders for time points after the medication usage. For other participants, all available data including those collected during the off-treatment period were to be used to determine the responder/non-responder status. Missing data were to be considered as non-responders.

[1] = 400 mg BID, Prior Omalizumab Use
[2] = 400 mg BID, omalizumab-naive participants
[3] = 400 mg QPM, Prior Omalizumab Use

CC(C)(C=C(C#N)C(=O)N1CCC[C@@H](n2nc(-c3ccc(Oc4ccccc4)cc3F)c3c(N)ncnc32)C1)N1CCN(C2COC2)CC1 [rilzabrutinib, (R)-2-[3-[4-amino-3-(2-fluoro-4-phenoxy-phenyl)pyrazolo[3,4-d]pyrimidin-1-yl]piperidine-1-carbonyl]-4-methyl-4-[4-(oxetan-3-yl)piperazin-1-yl]pent-2-enenitrile]
RRD (%) for rilzabrutinib vs. placebo, UAS7 = 0 (Week 9): −0.9 % | RRD (%) for rilzabrutinib vs. placebo, UAS7 ≤6 (Week 9): 16.7 % | Responder n (%), UAS7 = 0 (Week 9): 3 (8.6) n (%) | Responder n (%), UAS7 ≤6 (Week 9): 11 (31.4) n (%) | Imputed non-responder n (%), UAS7 = 0 (Week 10): 5 (14.3) n (%) | Imputed non-responder n (%), UAS7 ≤6 (Week 10): 5 (14.3) n (%) | Non-responder n (%), UAS7 = 0 (Week 10): 31 (88.6) n (%) | Non-responder n (%), UAS7 ≤6 (Week 10): 25 (71.4) n (%) | OR for rilzabrutinib vs. placebo, UAS7 = 0 (Week 10): 0.819 | OR for rilzabrutinib vs. placebo, UAS7 ≤6 (Week 10): 2.241 | RRD (%) for rilzabrutinib vs. placebo, UAS7 = 0 (Week 10): −1.7 % | RRD (%) for rilzabrutinib vs. placebo, UAS7 ≤6 (Week 10): 12.1 % | Responder n (%), UAS7 = 0 (Week 10): 4 (11.4) n (%) | Responder n (%), UAS7 ≤6 (Week 10): 10 (28.6) n (%) | Imputed non-responder n (%), UAS7 = 0 (Week 11): 4 (11.4) n (%) | Imputed non-responder n (%), UAS7 ≤6 (Week 11): 4 (11.4) n (%) | Non-responder n (%), UAS7 = 0 (Week 11): 31 (88.6) n (%) | Non-responder n (%), UAS7 ≤6 (Week 11): 24 (68.6) n (%) | OR for rilzabrutinib vs. placebo, UAS7 = 0 (Week 11): 1.846 | OR for rilzabrutinib vs. placebo, UAS7 ≤6 (Week 11): 1.971 | RRD (%) for rilzabrutinib vs. placebo, UAS7 = 0 (Week 11): 4.3 % | RRD (%) for rilzabrutinib vs. placebo, UAS7 ≤6 (Week 11): 11.2 % | Responder n (%), UAS7 = 0 (Week 11): 4 (11.4) n (%) | Responder n (%), UAS7 ≤6 (Week 11): 11 (31.4) n (%) | Imputed non-responder n (%), UAS7 = 0 (Week 12): 8 (22.9) n (%) | Imputed non-responder n (%), UAS7 ≤6 (Week 12): 8 (22.9) n (%) | Non-responder n (%), UAS7 = 0 (Week 12): 28 (80.0) n (%) | Non-responder n (%), UAS7 ≤6 (Week 12): 23 (65.7) n (%) | OR for rilzabrutinib vs. placebo, UAS7 = 0 (Week 12): 1.800 | OR for rilzabrutinib vs. placebo, UAS7 ≤6 (Week 12): 3.980 | RRD (%) for rilzabrutinib vs. placebo, UAS7 = 0 (Week 12): 6.9 % | RRD (%) for rilzabrutinib vs. placebo, UAS7 ≤6 (Week 12): 20.3 % | Responder n (%), UAS7 = 0 (Week 12): 7 (20.0) n (%) | Responder n (%), UAS7 ≤6 (Week 12): 12 (34.3) n (%) | Non-responder, UAS7 reduction from baseline of 10 points or more (400 mg BID, ITT population): 23 (56.1) n (%) | OR for rilzabrutinib vs. placebo, UAS7 reduction of 10 points or more (400 mg BID, ITT population): 2.607 | RRD (%) for rilzabrutinib vs. placebo, UAS7 reduction of 10 points or more (400 mg BID, ITT population): 20.0 % | Responder, UAS7 reduction from baseline of 10 points or more (400 mg BID, ITT population): 18 (43.9) n (%) | UAS7 Change from baseline Mean (SD) (400 mg BID, Omalizumab-Naïve): −9.96 (8.81) | UAS7 Change from baseline Median (400 mg BID, Omalizumab-Naïve): −9.00 | UAS7 Mean (SD) (400 mg BID, Omalizumab-Naïve): 19.77 (11.32) | UAS7 Median (400 mg BID, Omalizumab-Naïve): 21.00 | UAS7 Percent change from baseline Mean (SD) (400 mg BID, Omalizumab-Naïve): −35.41 (33.69) % | UAS7 Percent change from baseline Median (400 mg BID, Omalizumab-Naïve): −26.19% | UAS7 Change from baseline Mean (SD) [1]: −11.83 (12.14) | UAS7 Change from baseline Median [1]: −7.50 | UAS7 Median [1]: 23.50 | UAS7 Percent change from baseline Mean (SD) [1]: −35.59 (37.55) % | UAS7 Percent change from baseline Median [1]: −20.53% | Non-responder, UAS7 reduction from baseline of 10 points or more [2]: 19 (54.3) n (%) | OR for rilzabrutinib vs. placebo, UAS7 reduction of 10 points or more [2]: 2.862 | RRD (%) for rilzabrutinib vs. placebo, UAS7 reduction of 10 points or more [2]: 22.3 % | Responder, UAS7 reduction from baseline of 10 points or more [2]: 16 (45.7) n (%) | Non-responder, UAS7 reduction from baseline of 10 points or more (400 mg QPM, ITT population): 26 (68.4) n (%) | OR for rilzabrutinib vs. placebo, UAS7 reduction of 10 points or more (400 mg QPM, ITT population): 1.672 | Responder, UAS7 reduction from baseline of 10 points or more (400 mg QPM, ITT population): 12 (31.6) n (%) | UAS7 Change from baseline Mean (SD) (400 mg QPM, Omalizumab-Naïve): −7.30 (9.14) | UAS7 Change from baseline Median (400 mg QPM, Omalizumab-Naïve): −6.00 | UAS7 Mean (SD) (400 mg QPM, Omalizumab-Naïve): 23.81 (8.78) | UAS7 Median (400 mg QPM, Omalizumab-Naïve): 25.00 | UAS7 Percent change from baseline Mean (SD) (400 mg QPM, Omalizumab-Naïve): −21.72 (26.65) % | UAS7 Percent change from baseline Median (400 mg QPM, Omalizumab-Naïve): −17.95% | UAS7 Change from baseline Mean (SD) [3]: −16.00 (NC) | UAS7 Change from baseline Median [3]: −16.00 | UAS7 Mean (SD) [3]: 25.00 (NC) | UAS7 Median [3]: 25.00
